Assay results published in the SangsterLogP compilation.

Legend:
[1] = method code SF-RC, from DOI: 10.1016/s0969-8051(02)00326-8, PMID: 12234587; settings: pH 7.4
[2] = not given; remark: listed apart in the source
[3] = not given; remark: listed apart in the source
[4] = not given; remark: listed apart in the source
[5] = not given; remark: listed apart in the source
[6] = method code SF-GLC, from Jha, T.; Debnath, A.; Mazumdar, A.; Sengupta, C.; De, A. (1986). Hansch analysis of antineoplastic agents, 5-N-substituted-2-p-substituted benzenesulfonyl-L-glutamines. Ind. J. Chem., Sect. B, …
[7] = method code SF-AS, from DOI: 10.3109/00498258909043190, PMID: 2618089; settings: pH 10.8
[8] = method code SF-ILT, from DOI: 10.1002/ardp.19763091008, PMID: 1008678
[9] = method code SF-RC, from DOI: 10.1016/s0024-3205(01)01232-2; settings: pH 7.4
[10] = not given; remark: listed apart in the source
[11] = method code SF-RC, from DOI: 10.1016/j.bmc.2013.04.077, PMID: 23712084; settings: pH 7.4
[12] = not given; remark: listed apart in the source
[13] = method code SF, from DOI: 10.1021/jm5017544, PMID: 25671691; settings: pH 7.4
[14] = method code SF, from DOI: 10.1021/jm061062o.s001, PMID: 17326614; settings: pH 7.4
[15] = not given; remark: listed apart in the source
[16] = method code SF-RC, from DOI: 10.1016/j.nucmedbio.2011.12.002, PMID: 22321533
[17] = method code SF-AS, from DOI: 10.1016/j.ejmech.2010.07.027, PMID: 20705371
[18] = not given; remark: listed apart in the source
[19] = not given; remark: listed apart in the source
[20] = not given; remark: listed apart in the source
[21] = method code SF-HPLC, from DOI: 10.1002/ps.2780130506
[22] = method code SF-HPLC, from DOI: 10.1248/cpb.32.1929; settings: pH 7.2
[23] = not given; remark: listed apart in the source
[24] = method code SF-AS, from DOI: 10.1016/s0022-3565(25)32601-7, PMID: 7194909
[25] = method code SF-AS, from Pogodaeva, N.; Medvedeva, S. (2005). Hydrophobic properties of a number of monosubstituted flavone and flavanone derivatives. Russian Journal of Physical Chemistry A, 79(4)645-648.
[26] = not given; remark: listed apart in the source
[27] = method code SF, from DOI: 10.1016/0378-5173(91)90120-d
[28] = method code SF-RC, from DOI: 10.1021/acs.jmedchem.6b00849, PMID: 27690428; settings: pH 7.4
[29] = method code SF, from DOI: 10.1016/s0223-5234(03)00044-8, PMID: 12750026; settings: pH 7.4
[30] = method code SF-RC, from DOI: 10.1016/j.nucmedbio.2010.09.012, PMID: 21492779; settings: pH 7.4
[31] = method code SF-AS, from DOI: 10.1021/js960093b, PMID: 8897274; settings: pH 7.4
[32] = method code SF, from Tomlin, C. (2000). The Pesticide Manual (12th Edition) British Crop Protection Council, Bracknell.
[33] = not given; remark: listed apart in the source
[34] = method code SF-RC, from DOI: 10.1016/j.nucmedbio.2007.07.017, PMID: 17998101; settings: pH 7.4
[35] = not given; remark: listed apart in the source
[36] = method code SF-AS, from DOI: 10.1128/aac.27.1.84, PMID: 2580479
[37] = method code SF, from DOI: 10.1016/j.ijpharm.2011.07.043, PMID: 21839822; settings: pH 7.4
[38] = not given; remark: listed apart in the source
[39] = method code SF-RC, from DOI: 10.1016/s0969-8051(01)00199-8, PMID: 11395310; settings: pH 7.4
[40] = not given; remark: listed apart in the source
[41] = method code SF-HPLC, from DOI: 10.1021/jm300631e, PMID: 22734650; settings: pH 7.4
[42] = not given; remark: listed apart in the source
[43] = method code SF-AS, from DOI: 10.1021/jf990946w, PMID: 10888534
[44] = method code SF, from DOI: 10.1016/j.ejmech.2012.08.015, PMID: 22960698
[45] = not given; remark: listed apart in the source
[46] = method code SF, from PMID: 2161451; settings: pH 7.4
[47] = not given; remark: listed apart in the source

Work on `CNc1ccc(-c2cc3cc(I)ccc3o2)cc1` yielded a logD [1] of 2.04.
Work on `CCOP(=S)(NC(C)C)Oc1ccccc1C(=O)OC(C)C` (stereo not drawn) yielded a logP of 3.7.
In the case of `CCN1C=CC(=C2C(=O)c3ccc(Cl)cc3C2=O)C=C1`, the logP [2] is reported as 2.76.
For `CC(C(=O)O)c1ccc2c(c1)[nH]c1ccc(Cl)cc12` (stereo not drawn), the logP [3] was 4.04.
With `Cc1ccc2oc(-c3ccccc3C(=O)O)c(Br)c2c1` the logP [4] was 5.19.
`O=C1c2ccccc2C(=O)C1c1ccccc1` showed a logP [5] of 2.5.
With `CCCNC(=O)CCC(NS(=O)(=O)c1ccc(C)cc1)C(=O)O` (stereo not drawn) the logP [6] was 0.13.
`O=C(Cn1c(=O)sc2ccc(Cl)cc21)N1CCN(CCO)CC1` showed a logD [7] of 1.04.
`CCNC(=O)C1C2C=CC(C2)C1C(=O)N(CC)CC` (stereo not drawn) showed a logP [8] of 0.99.
Work on `CNc1ccc(-c2nc3ccc(C)cc3s2)cc1` yielded a logD [9] of 3.36.
In the case of `Cc1c2ccccc2cc2ccccc12`, the logP [10] is reported as 4.96.
Work on `O=C(NCCCCCF)Oc1cccc(C2=NCCO2)c1` yielded a logD [11] of 2.33.
With `O=C(O)Cc1ccc2c(c1)C(=O)c1ccccc1CS2` the logP [12] was 2.97.
For `Nc1ccc(-c2ccc3ccccc3n2)cc1`, the logD [13] was 1.85.
For `CS(=O)(=O)CCN(CCBr)c1cc(C(=O)NCC(O)CO)c([N+](=O)[O-])cc1[N+](=O)[O-]` (stereo not drawn), the logD [14] was -0.05.
`Cc1ccc2ccc3ccccc3c2c1` showed a logP [15] of 5.15.
Work on `Cc1cn(C2CC(O)C(CO)O2)c(=O)n(Cc2cn(CCF)nn2)c1=O` (stereo not drawn) yielded a logP [16] of -1.22.
Work on `CC(C)(C)c1ccc(O)c(CN2CCOCC2)c1` yielded a logP [17] of 1.96.
`CC(C)(C)C(=O)CC(C(O)C(C)(C)C)n1cncn1` (stereo not drawn) showed a logP [18] of 1.95.
`CC(C)(c1cc(Br)c(O)c(Br)c1)c1cc(Br)c(O)c(Br)c1` showed a logP [19] of 5.2.
`S=C(CCCCC1CCSS1)NCCN1CCOCC1` (stereo not drawn) gave a logP [20] of 2.9.
For `CNC(=O)ON=Cc1cccc(Oc2ccccc2)c1`, the logP [21] was 3.12.
With `COC(COC(N)=O)C1=C(N2CC2)C(=O)C(C)=C(N2CC2)C1=O` (stereo not drawn) the logD [22] was 0.
Work on `CC(C)(C)C(O)[C@H](Cc1ccc(Cl)cc1)n1cncn1` (stereo in doubt) yielded a logP [23] of 3.26.
`OC1(c2ccc(Cl)cc2)c2ccccc2C2=NCCN21` (stereo not drawn) gave a logP [24] of 1.81.
In the case of `O=C1c2ccccc2OC(c2ccccc2)C1O` (stereo not drawn), the logP [25] is reported as 2.57.
`Cc1c(-c2ccc(OCCCc3c[nH]cn3)cc2)no[n+]1[O-]` gave a logP [26] of 2.4.
With `Cc1cccc(Nc2ccccc2C(=O)O)c1C` the logP [27] was 4.38.
`N#Cc1ccc(N(Cc2ccc(I)cc2)n2cnnc2)cc1` showed a logD [28] of 2.48.
For `CNC(=O)Oc1ccc2c(c1)C1(C)CCN(C)C1N2C` (stereo not drawn), the logD [29] was 0.97.
In the case of `CN(C)c1ccc(-c2nc3ccc(I)cc3[nH]2)cc1`, the logD [30] is reported as 2.8.
In the case of `N#CN=C1NC(=O)C(c2ccccc2)(c2ccccc2)N1`, the logD [31] is reported as 1.16.
Compound `COCC(=O)N(c1c(C)cccc1C)C(C)C(=O)OC` (racemic) has a logP [32] of 1.75.
Compound `O=C(O)Cc1ccc2c(c1O)C(=O)c1c(O)cccc1C2` has a logP [33] of 3.1.
In the case of `FCCON=C1C=C(C#Cc2ccccn2)CCC1`, the logD [34] is reported as 2.1.
`CCc1cccc(C)c1N(C(=O)CCl)C(C)COC` (stereo not drawn) gave a logP [35] of 3.09.
`CO[C@@]1(NC(=O)CSCC#N)C(=O)N2C(C(=O)O)=C(CSc3nnnn3C)CS[C@@H]21` showed a logP [36] of -0.6.
In the case of `CCCCCCCCNC(=O)c1ccccc1O`, the logD [37] is reported as 3.7.
`Cc1nc(N)nc(N)c1C12CC3CC(CC(C3)C1)C2` showed a logP [38] of 2.64.
Work on `CCN1CCC[C@H]1CNC(=O)c1c(OC)ccc(I)c1O` yielded a logD [39] of 2.85.
In the case of `COC(=O)C1(O)c2ccccc2-c2ccccc21`, the logP [40] is reported as 1.67.
For `C=CCC1(c2cccc(C3(C(F)(F)F)N=N3)c2)C(=O)NC(=O)N(C)C1=O` (stereo not drawn), the logD [41] was 3.79.
Work on `CCCN(CCOc1c(Cl)cc(Cl)cc1Cl)C(=O)n1ccnc1` yielded a logP [42] of 4.1.
Compound `O=c1c(O)c(-c2cc(O)c(O)c(O)c2)oc2cc(O)cc(O)c12` has a logP [43] of 0.72.
`O=C(CC1OC(=O)c2ccccc21)c1ccc(Cl)c(Cl)c1` (stereo not drawn) showed a logP [44] of 4.24.
`O=c1c(O)c(-c2ccc(O)c(O)c2)oc2cc(O)cc(O)c12` showed a logP [45] of 2.13.
`CCOC(=O)c1ncn2c1CN(C)C(=O)c1c(I)cccc1-2` showed a logD [46] of 1.48.
Work on `COc1ccc2c(c1)OCC2NC(=O)CN1CCCC1` (stereo not drawn) yielded a logP [47] of 1.92.
